{"source": "patent EP0603240B1", "about": "“SAFENING HERBICIDAL PYRAZOLYLSULFONYLUREAS” (priority 1991, dated 1993)", "type_in_all_cases": "in vivo", "key": {"[1]": {"tested_on": "barnyardgrass (Echinochloa crusgalli)", "experiment": "Example 5, Procedure I: Herbicide No. 1 + alachlor (No. 7) with Antidote Nos. 15 and 16", "method": "(§1) Containers were filled and compacted with a fumigated silt loam top soil to a depth of about 1.3 cm from the top of the container. A first container was designated as an untreated control, a second container was designated as a herbicide control, and a third container was designated as a herbicide + antidote test container. Each of the containers was seeded with a crop species. A measured amount of herbicide dispersed or dissolved in acetone was applied to a measured quantity of soil. To this same quantity of soil treated with herbicide, there was added a measured amount of antidote dispersed or dissolved in acetone. The quantity of soil treated with the herbicide and antidote was thoroughly mixed to incorporate the herbicide and antidote in the soil uniformly. The seed bed in the third container of soil was covered with the soil treated with the herbicide and antidote and the container was leveled. For each test series, the seed beds of the first and second containers were likewise covered by soil layers. the cover layer of the first container was not treated with herbicide or antidote.\n(§2) The containers were then placed on a bench in a greenhouse and sub-irrigated as required for the duration of the test. […] Plant response is measured in terms of percent injury. Antidote efficacy is indicated as the difference in plant injury by the herbicide(s) without the antidote and with the antidote.\n(§3) In the series of greenhouse tests described below, for routine screening purposes the herbicide/antidote compositions were tested in crop/weed combinations involving corn as the crop and either or both of the weeds barnyardgrass (Echinochloa crusgalli), a monocotyledonous weed, and velvetleaf (Abutilon theophrasti), a dicotyledonous weed. In the tables below, these weeds are indicated by the symbols \"BYG\" and \"VL\", respectively.\n(§4) This example describes tests with Antidote Nos. 15 and 16 to safen Herbicide No. 1 according to Procedure I using corn and the weeds barnyardgrass and velvetleaf as the test plants.\n(§5) In the tests described in this example, the same procedure described in Example 4 was performed simultaneously therewith and under the same conditions, except that a co-herbicide, alachlor, was included in the same composition with Herbicide No. 1 and Antidote Nos. 15 and 16. Alachlor (Herbicide No. 7 herein) is the active ingredient in the commercial product LASSO® herbicide."}, "[2]": {"tested_on": "velvetleaf (Abutilon theophrasti)", "experiment": "Example 5, Procedure I: Herbicide No. 1 + alachlor (No. 7) with Antidote Nos. 15 and 16", "method": "as §1, §2, §3, §4, §5"}, "[3]": {"tested_on": "corn", "experiment": "Example 14, Procedure II: Herbicide No. 1 + metolachlor (No. 12) with Antidote No. 17", "method": "as §1, §2\nThis procedure is the same as Procedure I, but modified in the manner that after incorporation of the chemicals (herbicide and antidote) the containers with the covered seedbed were treated with an initial overhead irrigation equivalent to 0.6 cm rainfall, then subsequently sub-irrigated as required on greenhouse benches.\nIn this example a plurality of dichloroacetamide antidotes were tested for their safening efficacy against a herbicidal composition comprising Herbicide No. […] The procedure used in this example was Procedure II above. […]"}, "[4]": {"tested_on": "velvetleaf (Abutilon theophrasti)", "experiment": "Example 14, Procedure II: Herbicide No. 1 + metolachlor (No. 12) with Antidote No. 17"}, "[5]": {"settings": "Herbicide No.1 4.48 + No.7 0.56 kg/ha, no antidote"}, "[6]": {"settings": "Herbicide No.1 4.48 + No.7 2.24 kg/ha, no antidote"}, "[7]": {"settings": "Herbicide No.1 6.72 + No.7 0.56 kg/ha, no antidote"}, "[8]": {"settings": "Herbicide No.1 6.72 + No.7 (alachlor) 2.24 kg/ha, no antidote"}, "[9]": {"settings": "Herbicide No.1 4.48 + No.7 0.56 kg/ha + antidote 0.56 kg/ha"}, "[10]": {"settings": "Herbicide No.1 4.48 + No.7 0.56 kg/ha + antidote 2.24 kg/ha"}, "[11]": {"settings": "Herbicide No.1 4.48 + No.7 2.24 kg/ha + antidote 0.56 kg/ha"}, "[12]": {"settings": "Herbicide No.1 4.48 + No.7 2.24 kg/ha + antidote 2.24 kg/ha"}, "[13]": {"settings": "Herbicide No.1 6.72 + No.7 0.56 kg/ha + antidote 0.56 kg/ha"}, "[14]": {"settings": "Herbicide No.1 6.72 + No.7 0.56 kg/ha + antidote 2.24 kg/ha"}, "[15]": {"settings": "Herbicide No.1 6.72 + No.7 2.24 kg/ha + antidote 0.56 kg/ha"}, "[16]": {"settings": "Herbicide No.1 6.72 + No.7 2.24 kg/ha + antidote 2.24 kg/ha"}, "[17]": {"settings": "Herbicide No.1 0.14 + No.12 4.48 kg/ha + Antidote No.17 0.15 kg/ha"}, "[18]": {"settings": "Herbicide No.1 0.56 + No.12 4.48 kg/ha + Antidote No.17 0.15 kg/ha"}, "[19]": {"settings": "Herbicide No.1 2.24 + No.12 4.48 kg/ha + Antidote No.17 0.15 kg/ha"}}}
{"molecule": "COC(=O)c1c(Cl)nn(C)c1S(=O)(=O)NC(=O)Nc1nc(OC)cc(OC)n1", "note": "[Herbicide No. 1]", "values": [{"measurement": "% Injury BYG", "setting": "[1]; [5]", "value": 99, "unit": "%"}, {"measurement": "% Injury BYG", "setting": "[1]; [6]", "value": 100, "unit": "%"}, {"measurement": "% Injury BYG", "setting": "[1]; [7]", "value": 99, "unit": "%"}, {"measurement": "% Injury BYG", "setting": "[1]; [8]", "value": 100, "unit": "%"}, {"measurement": "% Injury VL", "setting": "[2]; [5]", "value": 98, "unit": "%"}, {"measurement": "% Injury VL", "setting": "[2]; [6]", "value": 98, "unit": "%"}, {"measurement": "% Injury VL", "setting": "[2]; [7]", "value": 98, "unit": "%"}, {"measurement": "% Injury VL", "setting": "[2]; [8]", "value": 98, "unit": "%"}]}
{"molecule": "CC1(C)OC(c2ccco2)CN1C(=O)C(Cl)Cl", "note": "(stereo not drawn) [compound 15]", "values": [{"measurement": "% Injury BYG", "setting": "[1]; [9]", "value": 99, "unit": "%"}, {"measurement": "% Injury BYG", "setting": "[1]; [10]", "value": 95, "unit": "%"}, {"measurement": "% Injury BYG", "setting": "[1]; [11]", "value": 100, "unit": "%"}, {"measurement": "% Injury BYG", "setting": "[1]; [12]", "value": 100, "unit": "%"}, {"measurement": "% Injury BYG", "setting": "[1]; [13]", "value": 99, "unit": "%"}, {"measurement": "% Injury BYG", "setting": "[1]; [14]", "value": 99, "unit": "%"}, {"measurement": "% Injury BYG", "setting": "[1]; [15]", "value": 100, "unit": "%"}, {"measurement": "% Injury BYG", "setting": "[1]; [16]", "value": 100, "unit": "%"}, {"measurement": "% Injury VL", "setting": "[2]; [9]", "value": 95, "unit": "%"}, {"measurement": "% Injury VL", "setting": "[2]; [10]", "value": 95, "unit": "%"}, {"measurement": "% Injury VL", "setting": "[2]; [11]", "value": 98, "unit": "%"}, {"measurement": "% Injury VL", "setting": "[2]; [12]", "value": 95, "unit": "%"}, {"measurement": "% Injury VL", "setting": "[2]; [13]", "value": 95, "unit": "%"}, {"measurement": "% Injury VL", "setting": "[2]; [14]", "value": 99, "unit": "%"}, {"measurement": "% Injury VL", "setting": "[2]; [15]", "value": 99, "unit": "%"}, {"measurement": "% Injury VL", "setting": "[2]; [16]", "value": 95, "unit": "%"}]}
{"molecule": "CC1COc2ccccc2N1C(=O)C(Cl)Cl", "note": "(stereo not drawn) [compound 17]", "values": [{"measurement": "% Injury Corn", "setting": "[3]; [17]", "value": 15, "unit": "%"}, {"measurement": "% Injury Corn", "setting": "[3]; [18]", "value": 25, "unit": "%"}, {"measurement": "% Injury Corn", "setting": "[3]; [19]", "value": 80, "unit": "%"}, {"measurement": "% Injury VL", "setting": "[4]; [17]", "value": 90, "unit": "%"}, {"measurement": "% Injury VL", "setting": "[4]; [18]", "value": 95, "unit": "%"}, {"measurement": "% Injury VL", "setting": "[4]; [19]", "value": 100, "unit": "%"}]}
